Literature values, collected in PMC7494335 (Science Advances, 2020).

Test system: humans
Conditions: in vivo

With `NCCc1c[nH]cn1` [histamine] as the molecule, how does the “pain if injected alone / addition to Dendrocnide extract” value read?
The value was “neither changed the nature of the pain caused by Dendrocnide extract nor caused substantial long-lasting pain if injected alone”.
